# From US8901126B2, “Substituted imidazo[1,5-A]quinoxalin-4-ones are useful for preventing or treating storage dysfunction, voiding dysfunction and bladder/urethral diseases” (priority 2010, dated 2014)
# Counter-ions that a name gives are not always drawn.
# What was measured:
# [1] = system: urethra relaxation response; test: Simultaneous measurement model for rat bladder contraction/urethra relaxation responses; format: in vivo; details: female SD rat, urethane anesthesia, 1 mg/kg, intravenously or intraduodenally
# Source text: That is, a female Sprague-Dawley (SD) rat (Charles River Laboratories Japan, Inc.) was anesthetized with urethane, and the bladder was exposed by a midline incision in the lower abdomen. A double lumen cannula (a cannula having a dual structure by PE190 and PE50) from the bladder apex was inserted into the bladder, and the bladder apex and the cannula were fixed by sutures at a point where the tip reached the proximal urethra. While infusing physiological saline into the urethra through the outer cannula, the urethral inner pressure was measured by a pressure transducer through the inner cannula with a saline solution infused into the urethra through the outer cannula. On the other hand, a single cannula (PE50) was inserted into the bladder from the bladder apex and placed therein. The inner pressure of the bladder was measured through this cannula. After a postoperative stabilization period had passed, physiological saline was infused into the bladder through the cannula of the bladder apex to cause a bladder contraction reaction, and thus cause a urethra relaxation response accompanying the bladder contraction reflex. The test substance was administered intravenously or intraduodenally.
# PDE9 = molecular target: T1, PDE9 (Homo sapiens, UniProt O76083); test: PDE9-inhibiting activity (SPA, 3H-cGMP degradation); format: biochemical; details: PDE9-inhibiting activity (IC50 values), cGMP 1 μM, 30° C.
# T1 construct: made in house
# T1 sequence (O76083 whole entry): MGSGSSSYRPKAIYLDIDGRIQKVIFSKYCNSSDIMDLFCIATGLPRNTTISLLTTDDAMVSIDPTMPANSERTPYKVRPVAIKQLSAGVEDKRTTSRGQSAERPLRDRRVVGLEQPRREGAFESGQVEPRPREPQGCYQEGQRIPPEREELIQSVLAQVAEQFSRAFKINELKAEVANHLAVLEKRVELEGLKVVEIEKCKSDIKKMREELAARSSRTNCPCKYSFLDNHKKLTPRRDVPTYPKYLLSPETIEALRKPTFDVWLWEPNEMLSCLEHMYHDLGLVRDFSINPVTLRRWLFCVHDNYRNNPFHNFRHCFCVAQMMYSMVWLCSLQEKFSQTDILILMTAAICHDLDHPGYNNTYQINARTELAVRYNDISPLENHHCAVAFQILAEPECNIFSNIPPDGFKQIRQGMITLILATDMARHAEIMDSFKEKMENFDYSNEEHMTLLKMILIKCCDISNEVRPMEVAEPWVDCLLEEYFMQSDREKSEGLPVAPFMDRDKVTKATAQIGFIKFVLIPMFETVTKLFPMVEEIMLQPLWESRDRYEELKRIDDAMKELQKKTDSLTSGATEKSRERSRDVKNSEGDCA
# Description: The PDE9 used in the present experiment was expressed/purified by the method as in, for example, Guipponi et al., and Fisher et., al. (Fisher, D. A., et al., J. Biol. Chem., 273: pp. 15559-15564 (1998), Guipponi, M., et al., Hum. Genet., 103: pp. 386-392 (1998)).
# (2) Evaluation of PDE9-Inhibiting Activity
# The PDE9-inhibiting activity was measured by the following method. That is, to a buffer solution containing tris(hydroxymethyl)aminomethane-hydrochloric acid (40 mM, pH 8.0), magnesium chloride (5 mM), and 2-mercaptoethanol (4 mM) were added cGMP (1 μM) and ^3H-cGMP (0.33 μCi/ml) to give a substrate buffer solution. A test substance solution and an enzyme solution which had been adjusted to an optimal concentration were added thereto to perform a reaction at 30° C. The enzyme reaction was stopped by the addition of Scintillation Proximity Assay (SPA) Beads (Perkin Elmer, USA) containing 5 mM 3-isobutyl-1-methylxanthine (IBMX). For the enzyme activity, the amount of 5′-GMP, which is a reaction degradation product bound to SPA beads, was measured with a TopCount microplate reader (Hewlett Packard, USA).
# The inhibitory rate was calculated by taking the radioactivity of the control containing no test substance as (A), taking the radioactivity of the blank containing no enzyme as (B), and taking the radioactivity of the test substance as (C), and using the following equation. Inhibitory rate=100−{(C)−(B)/(A)−(B)}×100(%)
Compound,IC50 (PDE9) [nM],melting point,ratio with increased urethra relaxation time during voiding (increase relative to the solvent administration group (vs vehicle)) [1] [%]
"COc1cc2c(cn1)N(C(=O)c1cc3[nH]c(=O)c4cnc(C5CCOC5)n4c3cc1C)CC2 (single isomer, unassigned) [Example 27(b)]",26,,181
"Cc1cc2c(cc1C(=O)N1CCc3cc(F)c(F)cc31)[nH]c(=O)c1cnc(C3CCOC3)n12.Cl (single isomer, unassigned) [Example 30(b)]",5.8,,147
"COCc1cc2c(cc1C(=O)N1Cc3c(F)ccc(F)c3C1)[nH]c(=O)c1cnc(C3CCOC3)n12.Cl (single isomer, unassigned) [Example 45(b)]",8.9,,141
COc1cc2c(cn1)N(C(=O)c1cc3[nH]c(=O)c4cnc(C5CCOC5)n4c3cc1C)CC2 (stereo not drawn) [Example 27],84,241 to 243 °C,
Cc1cc2c(cc1C(=O)N1CC(C)c3cc(Cl)ccc31)[nH]c(=O)c1cnc(C3CCOCC3)n12.Cl (stereo not drawn) [Example 31],1.4,221 to 224 °C,149
Cc1cc2c(cc1C(=O)N1CC(C)c3cc(Cl)ccc31)[nH]c(=O)c1nnc(C3CCOCC3)n12.Cl (stereo not drawn) [Example 32],2.6,231 to 234 °C,
COCc1cc2c(cc1C(=O)N1Cc3cccc(F)c3C1)[nH]c(=O)c1cnc(C3CCOC3)n12 (stereo not drawn) [Example 42],13,154 to 156 °C,
COCc1cc2c(cc1C(=O)N1CCc3cc(Br)cnc31)[nH]c(=O)c1nnc(CC3CC3)n12 [Example 44],6.1,168 to 170 °C,
COCc1cc2c(cc1C(=O)N1CCc3cc(Cl)ccc31)[nH]c(=O)c1nnc(C3CCC3)n12.Cl [Example 46],13,170 to 172 °C,

# Second part, led by results:
IC50 (PDE9) [nM],melting point,Compound,ratio with increased urethra relaxation time during voiding (increase relative to the solvent administration group (vs vehicle)) [1] [%]
14,,"COCc1cc2c(cc1C(=O)N1CCc3cc(C)cnc31)[nH]c(=O)c1cnc(C3CCOC3)n12 (single isomer, unassigned) [Example 25(b)]",131
5.6,,"Cc1cc2c(cc1C(=O)N1CCc3cc(Br)cnc31)[nH]c(=O)c1cnc(C3CCOC3)n12 (single isomer, unassigned) [Example 29(b)]",149
2.8,,"COCc1cc2c(cc1C(=O)N1CCc3cc(Br)cnc31)[nH]c(=O)c1cnc(C3CCOC3)n12 (single isomer, unassigned) [Example 43(b)]",138
11,,"COCc1cc2c(cc1C(=O)N1CCc3cc(OC)ncc31)[nH]c(=O)c1cnc(C3CCOC3)n12 (single isomer, unassigned; (+)) [Example 4(b), (+)-7-[(5-methoxy-2,3-dihydro-1H-pyrrolo[2,3-c]pyridin-1-yl)carbonyl]-8-(methoxymethyl)-1-(tetrahydrofuran-3-yl)imidazo[1,5-a]quinoxalin-4(5H)-one dihydrochloride]",167
18,174 to 176 °C,COCc1cc2c(cc1C(=O)N1CCc3cc(Br)cnc31)[nH]c(=O)c1nnc(C3CCC3)n12 [Example 41],
2.1,300 to 305 °C (dec.),Cc1cc2c(cc1C(=O)N1CCc3cc(Br)cnc31)[nH]c(=O)c1cnc(C3CCCOC3)n12 (stereo not drawn) [Example 47],
0.8,270 to 275 °C (dec.),O=C(c1cc2[nH]c(=O)c3cnc(C4CCOCC4)n3c2cc1Cl)N1CCc2cc(Br)cnc21 [Example 48],
